Results from paper PMC12439166, “Dietary flavonoids form supramolecular assemblies, alter biochemistry, and enhance cell resilience” (Frontiers in Nutrition, 2025).

Molecular target: T1, Histone-Lysine N-methyltransferase (NSD2) (Homo sapiens, UniProt O96028)
T1 sequence (O96028 1-1365): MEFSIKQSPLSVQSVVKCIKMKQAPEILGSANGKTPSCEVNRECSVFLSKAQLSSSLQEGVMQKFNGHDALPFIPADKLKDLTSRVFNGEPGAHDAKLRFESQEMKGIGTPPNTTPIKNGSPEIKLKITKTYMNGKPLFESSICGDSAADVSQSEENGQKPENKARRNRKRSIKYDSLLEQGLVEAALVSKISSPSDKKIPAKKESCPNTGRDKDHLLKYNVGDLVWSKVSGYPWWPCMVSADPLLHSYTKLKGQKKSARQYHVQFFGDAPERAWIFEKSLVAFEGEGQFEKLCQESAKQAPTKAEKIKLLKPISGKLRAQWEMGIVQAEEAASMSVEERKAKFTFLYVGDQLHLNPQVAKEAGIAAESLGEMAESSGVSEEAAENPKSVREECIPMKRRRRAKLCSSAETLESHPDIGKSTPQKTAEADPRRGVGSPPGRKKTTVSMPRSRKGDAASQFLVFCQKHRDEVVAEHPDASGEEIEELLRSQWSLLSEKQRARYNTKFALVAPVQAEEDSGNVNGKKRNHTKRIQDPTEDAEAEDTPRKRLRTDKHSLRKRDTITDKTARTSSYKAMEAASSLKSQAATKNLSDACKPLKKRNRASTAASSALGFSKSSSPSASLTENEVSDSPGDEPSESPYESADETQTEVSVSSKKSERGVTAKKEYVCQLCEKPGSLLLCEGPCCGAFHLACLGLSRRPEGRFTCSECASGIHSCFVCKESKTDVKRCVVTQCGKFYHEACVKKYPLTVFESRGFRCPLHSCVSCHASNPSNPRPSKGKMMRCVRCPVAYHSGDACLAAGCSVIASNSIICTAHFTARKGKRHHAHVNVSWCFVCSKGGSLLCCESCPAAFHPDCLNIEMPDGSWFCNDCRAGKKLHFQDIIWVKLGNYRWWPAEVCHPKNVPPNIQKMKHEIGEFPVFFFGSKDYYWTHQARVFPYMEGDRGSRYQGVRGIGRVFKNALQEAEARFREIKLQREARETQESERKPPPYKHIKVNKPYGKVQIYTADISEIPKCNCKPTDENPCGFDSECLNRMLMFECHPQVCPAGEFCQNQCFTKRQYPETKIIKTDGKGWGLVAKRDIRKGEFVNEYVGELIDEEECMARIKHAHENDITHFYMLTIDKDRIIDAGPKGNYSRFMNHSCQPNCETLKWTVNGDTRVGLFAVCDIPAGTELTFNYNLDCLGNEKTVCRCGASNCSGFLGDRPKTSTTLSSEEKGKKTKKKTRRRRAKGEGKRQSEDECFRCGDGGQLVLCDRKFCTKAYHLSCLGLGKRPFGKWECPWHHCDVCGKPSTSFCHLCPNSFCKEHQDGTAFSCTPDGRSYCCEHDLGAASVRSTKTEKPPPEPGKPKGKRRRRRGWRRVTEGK
Assay: Enzyme activity assay (SAMDI-MS), NSD2
Format: biochemical
Conditions: 10 concentrations, 5 nM to 100 μM, compounds incubated with enzyme 30 min, result in words
Method: Enzyme screens were performed by SAMDI Tech (contract research organization); enzyme assays were performed in a 20 μL volume in 384-well low-volume polypropylene microtiter plates (Greiner Bio-One) at room temperature. The enzymes [Arginase 1 (ARG1), Lysine demethylase 4C (KDM4C), MAP/microtubule affinity-regulating kinase 4 (MARK4), Histone-Lysine N-methyltransferase (NSD2), Tyrosine-protein phosphatase non-receptor type 1 (PTP1B), and Sirtuin-3 (SIRT3)] were incubated with compounds for 30 min prior to initiation of the reaction by the addition of substrate and cofactors (if required). Reactions were quenched by the addition of 0.5% formic acid (final) with subsequent neutralization using 1% sodium bicarbonate (final). For SAMDI MS analysis, 2 μL of each reaction was transferred using a 384-channel automated liquid handler to SAMDI biochip arrays functionalized with a neutravidin-presenting self-assembled monolayer. The preparation of SAMDI biochip arrays has been previously described ([41], [42], [49]). The SAMDI arrays were incubated for 1 h in a humidified chamber to allow specific immobilization of the biotinylated substrates and products; they were then purified by washing with ultrafiltered water (50 μL/spot) and dried with compressed air. A matrix comprising α-Cyano-4-hydroxycinnamic acid in 80% acetonitrile: 20% aqueous ammonium citrate (10 mg/mL final) was applied in an automated format by dispensing 50 nL to each spot in the array. SAMDI MS was performed using reflector positive mode on an AB Sciex TOF-TOF 5800 System (AB Sciex, Framingham, MA) with 400 shots/spot analyzed in a random raster sampling. For data analysis, the area under the curves (AUCs) for the product peak and substrate peak were calculated using the TOF/TOF Series Explorer (AB Sciex), and the amount of product formed was calculated using the equation AUC product / (AUC product + AUC Substrate). Negative controls were pre-quenched with 0.5% formic acid (final). Lysozyme assay was performed using the manufacturer’s instructions (Biovision Lysozyme inhibitor screening kit K237). Flavonoids were acquired from Sigma-Aldrich and Seleckchem.
IC50 values of enzyme inhibition. Inhibition of the enzymes was measured at 10 concentration values in the range of 5 nM to 100 μM for each compound and enzyme, with two technical replicates; the percent inhibition values were determined by SAMDI software. Sigmoidal curves were fitted to the percent inhibition vs log10 (concentration) series, and IC50 values were determined at the crossing point of 50 % inhibition. Manual verification of the fits and the IC50 values was performed. The resulting IC50 values fell into the following categories: (a) within the assayed range of 5nM to 100μM (26 % of fits), (b) IC50 could be extrapolated, IC50 > 100μM (12 % of fits), or (c) fitting was not possible because all values were at baseline (62 % of fits). Compound efficacy ranking. First, for each IC50 value per compound and enzyme, a Z-score was calculated based on the log10 (IC50) value and that of the compounds that produced a successful readout for enzyme i , according to Equation 1: […]

SMILES	inhibition of enzyme activity, NSD2	inhibition of enzyme activity, NSD2 (listed as Quercetin)	inhibition of enzyme activity, NSD2 (listed as Quercitin)
O=c1c(O)c(-c2ccc(O)c(O)c2)oc2cc(O)cc(O)c12 [quercetin]	blocked	inhibited	concentration-dependent inhibition
O=c1c(O[C@@H]2O[C@H](CO)[C@@H](O)[C@H](O)[C@H]2O)c(-c2ccc(O)c(O)c2)oc2cc(O)cc(O)c12 [isoquercitrin]	blocked		
C[C@@H]1O[C@@H](Oc2c(-c3ccc(O)c(O)c3)oc3cc(O)cc(O)c3c2=O)[C@H](O)[C@H](O)[C@H]1O [quercitrin]	blocked		
